Data as given in ChEMBL document CHEMBL1129344, “Chemical synthesis of benzamide adenine dinucleotide: inhibition of inosine monophosphate dehydrogenase (types I and II)” (J Med Chem, 1996).
Values belong to the molecule of their own block, whether it stands above or below them.

What was measured:
Homo sapiens [1] = organism: Homo sapiens; test: Compound was evaluated for binding affinity by enzymatically to inhibit IMPDH; format: functional
Homo sapiens [2] = organism: Homo sapiens; test: Compound was evaluated for inhibition of inosine monophosphate dehydrogenase type-I; format: functional, organism-based
Homo sapiens [3] = organism: Homo sapiens; test: Compound was evaluated for inhibition of inosine monophosphate dehydrogenase type-II; format: functional, organism-based
Homo sapiens [4] = organism: Homo sapiens; test: Compound was evaluated for inhibitory concentration of inosine monophosphate dehydrogenase; format: functional, organism-based
Homo sapiens [5] = organism: Homo sapiens; test: Binding affinity towards less potent effect against alcohol dehydrogenase (ADH); format: functional
Homo sapiens [6] = organism: Homo sapiens; test: Compound was evaluated for inhibitory concentration potent against IMPDH type-I; format: functional, organism-based
Homo sapiens [7] = organism: Homo sapiens; test: Compound was evaluated for inhibitory concentration potent against IMPDH type-II; format: functional, organism-based

Ki (Homo sapiens [1]): 118 nM | IC50 (Homo sapiens [2]): 780 nM | IC50 (Homo sapiens [3]): 880 nM
Compound: NC(=O)c1cccc([C@@H]2O[C@H](CO)[C@@H](O)[C@H]2O)c1

IC50 (Homo sapiens [4]): 7000 nM
Compound: NC(=O)c1cncc([C@@H]2O[C@H](CO)[C@@H](O)[C@H]2O)c1

IC50 (Homo sapiens [4]): 26000 nM | Ki (Homo sapiens [5]): 20 nM
Compound: NC(=O)c1cccc([C@@H]2O[C@H](CO)[C@@H](O)[C@H]2O)n1

IC50 (Homo sapiens [6]): 94 nM | IC50 (Homo sapiens [7]): 101 nM
Compound: NC(=O)c1csc([C@@H]2O[C@H](CO)[C@@H](O)[C@H]2O)n1 [TIAZOFURIN]
